Columns and labels:
KATP channels = target: T1, KATP channels (Rattus norvegicus, UniProt Q09429); experiment: Whole cell patch clamp of HEK293t cells transfected with Kir6.2 and SUR1; type: cell-based; details: for Difference (%) in current change between first and last switch / ΔI [pA] first switch / ΔI [pA] last switch: 400 nm; for reversal potential: n = 5 recordings; for % block: versus 500 µM tolbutamide in the same experiment, n = 3
T1 construct: expressed in transfected cells; host or cells: HEK293t (Leibniz-Institut DSMZ: #305)
Protocol: HEK293t cells (obtained from Leibniz-Institut DSMZ: #305) were incubated in Dulbecco's Modified Eagle Medium (DMEM) + 10% FBS and used for electrophysiological recordings 24-48 hrs following Lipofectamine transfection with plasmids encoding Kir6.2 (Genbank D50581), rat SUR1 (Genbank L40624) and GFP. Whole cell patch clamp experiments were performed using a standard electrophysiology setup equipped with a HEKA Patch Clamp EPC10 USB amplifier and PatchMaster software (HEKA Electronik). Micropipettes were generated from "Science Products GB200-F-8P with filament" pipettes using a vertical puller. Resistance varied between 5-7 MΩ. Bath solution contained in mM: 3 KCl, 118 NaCl, 25 NaHCO3, 2 CaCl2, 1 MgCl2, 10 HEPES (NaOH to pH 7.4). Pipette solution contained in mM: 90 K-gluconate, 10 NaCl, 10 KCl, 1 MgCl2, 10 EGTA, 60 HEPES (KOH to pH 7.3), and the holding potential was -60 mV. Illumination during electrophysiology and UV/Vis experiments was provided by a TILL Photonics Polychrome 5000 monochromator.

isolated murine islets = experiment: Insulin secretion from isolated islets (static incubation, radioimmunoassay); type: cell-based, mouse
Protocol: Insulin secretion was measured from 6 islets per well, incubated at 37 °C for 30 min in 0.5 ml of Krebs-HEPES-bicarbonate (KHB) solution (containing in mM: 130 NaCl, 3.6 KCl, 1.5 CaCl2, 0.5 MgSO4, 0.5 NaH2PO4, 2 NaHCO3, 10 HEPES, and 0.1 % (wt/vol) BSA, pH 7.4) containing the indicated glucose concentration and tolbutamide (100 µM), glimeperide (50 µM), diazoxide (250 µM) and JB253 (50 µM). Illumination (λ = 405 ± 20 nm and 485 ± 6 nm) was performed using a Fluostar Optima microplate reader (BMG Labtech) set to deliver 30 s of light every 2 min to the designated wells. Insulin concentrations were determined in duplicate using specific radioimmunoassay (EMD Millipore).

human islets = experiment: Calcium imaging in isolated human islets of Langerhans; type: cell-based; details: human islets from three donors, 440 nm
Protocol: Human islets were isolated from deceased heart-beating donors (n = 3) at transplantation facilities in Pisa and Edmonton with the relevant national and local ethical permissions, including consent from next of kin where required, and cultured in RPMI supplemented with 5.5 mM D-glucose, 10% foetal calf serum (FCS), 100 U penicillin, 100 µg streptomycin and 0.25/µl fungizone (37 °C, 5% CO2). All studies involving human tissue were approved by the National Research Ethics Committee (NRES) London (Fulham), REC # 07/H0711/114.
Islets were loaded for 30-45 min in fluo2-AM (10 µM) or for 2-5 min with X-Rhod 1 (5 µM) diluted with a mixture of DMSO (0.01%, wt/vol) and pluronic acid (0.001%, wt/vol; all Invitrogen) in a bicarbonate buffer containing in mM: 120 NaCl, 4.8 KCl, 1.25 NaH2PO4, 24 NaHCO3, 2.5 CaCl2, 1.2 MgCl2 and 5 D-glucose. fMCI was performed using a Zeiss Axiovert M200 fitted with a Nipkow spinning-disk head (Yokogawa CSU-10) and a 10x/0.3NA objective adjusted for chromatic aberration (EC Plan-Neofluar, Zeiss). Pulsed excitation (frequency = 0.5 Hz; exposure = 263 ms) was delivered at 491 nm and emitted signals recorded at 500-550 nm with a back-illuminated 16-bit EM-CCD camera (ImageEM 9100-13; Hamamatsu). During recording, islets were maintained at 35-36 °C in the presence of 50 µM JB253 using a custom-manufactured perfusion and heating system (Digital Pixel). Drugs were introduced through the perfusion system at the indicated time points and concentrations. Violet light was delivered by a 405 ± 5 nm laser coupled to the side port of the microscope and configured to fill the back of the objective with light using an Optospot (Cairn Research). Blue light was delivered using 440 ± 5 nm and 491 ± 5 nm diode lasers controlled by a laser merge module (Spectral Applied Research) to allow simultaneous exposure and acquisition. […] Signals were normalized using F/Fmin where F is fluorescence at a given timepoint and Fmin is minimum fluorescence.

[1] = four dark/400 nm cycles, single cell, ± SEM
[2] = λ 400 nm, 50 µM JB253, ± SD, n = 3 recordings
[3] = λ 420 nm, 50 µM JB253, ± SD, n = 3 recordings
[4] = λ 440 nm, 50 µM JB253, ± SD, n = 3 recordings
[5] = λ 460 nm, 50 µM JB253, ± SD, n = 3 recordings
[6] = λ 480 nm, 50 µM JB253, ± SD, n = 3 recordings
[7] = λ 500 nm, 50 µM JB253, ± SD, n = 3 recordings

T1 sequence (Q09429 whole entry): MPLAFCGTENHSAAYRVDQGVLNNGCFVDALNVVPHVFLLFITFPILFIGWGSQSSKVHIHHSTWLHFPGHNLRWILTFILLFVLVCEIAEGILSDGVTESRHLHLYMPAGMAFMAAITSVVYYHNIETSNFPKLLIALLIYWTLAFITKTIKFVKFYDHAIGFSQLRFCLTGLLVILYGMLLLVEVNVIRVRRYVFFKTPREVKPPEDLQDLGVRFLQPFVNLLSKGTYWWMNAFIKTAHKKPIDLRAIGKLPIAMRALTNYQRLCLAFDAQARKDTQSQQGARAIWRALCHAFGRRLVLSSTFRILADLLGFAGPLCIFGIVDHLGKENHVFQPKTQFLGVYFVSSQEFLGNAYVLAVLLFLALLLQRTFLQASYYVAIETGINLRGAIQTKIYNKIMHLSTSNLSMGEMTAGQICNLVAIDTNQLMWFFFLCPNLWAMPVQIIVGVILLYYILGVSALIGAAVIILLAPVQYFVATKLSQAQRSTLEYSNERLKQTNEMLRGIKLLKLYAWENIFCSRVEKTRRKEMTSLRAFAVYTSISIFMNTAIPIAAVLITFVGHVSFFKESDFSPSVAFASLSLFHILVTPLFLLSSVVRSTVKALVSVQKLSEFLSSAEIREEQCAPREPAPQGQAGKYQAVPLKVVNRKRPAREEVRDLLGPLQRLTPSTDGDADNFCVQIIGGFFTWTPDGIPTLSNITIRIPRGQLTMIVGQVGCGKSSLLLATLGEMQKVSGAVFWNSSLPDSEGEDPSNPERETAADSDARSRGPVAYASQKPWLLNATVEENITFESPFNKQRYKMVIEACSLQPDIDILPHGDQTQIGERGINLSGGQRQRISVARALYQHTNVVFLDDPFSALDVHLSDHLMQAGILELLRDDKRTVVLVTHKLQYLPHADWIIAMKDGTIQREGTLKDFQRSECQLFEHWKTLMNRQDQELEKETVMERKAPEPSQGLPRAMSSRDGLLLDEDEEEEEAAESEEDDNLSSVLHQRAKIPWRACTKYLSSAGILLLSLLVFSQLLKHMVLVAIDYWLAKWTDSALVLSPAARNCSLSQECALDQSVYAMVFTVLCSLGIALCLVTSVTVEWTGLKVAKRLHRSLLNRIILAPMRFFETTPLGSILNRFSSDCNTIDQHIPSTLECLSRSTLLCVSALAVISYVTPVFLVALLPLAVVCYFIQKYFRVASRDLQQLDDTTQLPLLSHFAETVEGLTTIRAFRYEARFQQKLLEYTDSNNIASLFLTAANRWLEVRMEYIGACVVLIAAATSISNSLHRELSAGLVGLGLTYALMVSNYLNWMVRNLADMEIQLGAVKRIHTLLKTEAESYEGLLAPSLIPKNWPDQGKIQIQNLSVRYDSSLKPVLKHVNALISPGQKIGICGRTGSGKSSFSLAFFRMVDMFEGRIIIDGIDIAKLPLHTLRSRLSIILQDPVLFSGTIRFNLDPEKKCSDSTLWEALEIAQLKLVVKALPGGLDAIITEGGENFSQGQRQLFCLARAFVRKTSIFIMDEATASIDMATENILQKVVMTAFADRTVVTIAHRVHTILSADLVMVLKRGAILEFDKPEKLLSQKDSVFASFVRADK
T1 sequence (Q61743 whole entry partner): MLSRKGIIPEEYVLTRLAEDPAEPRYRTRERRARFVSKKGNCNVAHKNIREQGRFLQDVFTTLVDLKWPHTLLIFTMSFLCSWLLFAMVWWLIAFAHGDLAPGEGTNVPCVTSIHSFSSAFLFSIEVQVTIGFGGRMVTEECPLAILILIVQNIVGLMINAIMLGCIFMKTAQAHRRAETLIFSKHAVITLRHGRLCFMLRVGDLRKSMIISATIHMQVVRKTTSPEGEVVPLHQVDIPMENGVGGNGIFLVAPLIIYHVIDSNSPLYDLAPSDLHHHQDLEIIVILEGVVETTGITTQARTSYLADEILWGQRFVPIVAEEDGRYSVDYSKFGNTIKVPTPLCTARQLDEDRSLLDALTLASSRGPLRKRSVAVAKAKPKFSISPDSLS

## CCN(CC)c1ccc(/N=N/c2ccc(S(=O)(=O)NC(=O)NC3CCCCC3)cc2)cc1 [JB253, (E)-N-(cyclohexylcarbamoyl)-4-((4-(diethylamino)phenyl)diazenyl)benzenesulfonamide]
KATP channels; experiment 1, 12 cycles
  Difference (%) in current change between first and last switch: 34.4%
  ΔI [pA] first switch: 136.5 pA
  ΔI [pA] last switch: 89.5 pA
KATP channels; experiment 2, 9 cycles
  Difference (%) in current change between first and last switch: 3.4%
  ΔI [pA] first switch: 438.8 pA
  ΔI [pA] last switch: 423.8 pA
KATP channels; experiment 3, 5 cycles
  Difference (%) in current change between first and last switch: 19.5%
  ΔI [pA] first switch: 200.0 pA
  ΔI [pA] last switch: 161.0 pA
KATP channels; experiment 4, 4 cycles
  Difference (%) in current change between first and last switch: 2.1%
  ΔI [pA] first switch: 521 pA
  ΔI [pA] last switch: 510 pA
KATP channels; HEK293t Kir6.2/SUR1
  wavelength of maximal photoblock of KATP channels: 460 nm
KATP channels; HEK293t Kir6.2/SUR1, holding potential -60 mV, n = 3 recordings
  photoswitching of K^+ currents at wavelengths > 560 nm: unable to photoswitch
KATP channels; block upon exposure to 400 nm
  τon: 400 ms
KATP channels; dark state, 50 µM JB253, a fraction of the effect of 500 µM tolbutamide
  K^+ current amplitude: partly reduced
KATP channels; dark, ± SEM
  reversal potential: -90.0 ± 1.8 mV
KATP channels; [1]
  ΔI: 504.8±6.9 pA
  τoff: 1472 ± 75 ms
  τon: 477 ± 26 ms
KATP channels; illuminated, ± SEM
  reversal potential: -87.8 ± 1.6 mV
KATP channels; illumination with wavelengths between 400-500 nm, 50 µM JB253
  block relative to that recorded using 500 µM tolbutamide: 45-72%
KATP channels; repeated dark/400 nm cycles, mean of all experiments
  difference in ΔI [pA] between first and last switch: 14.9 ± 7.6%
KATP channels; thermal relaxation after light source shut off (400 nm)
  τoff: 1500 ms
KATP channels; λ 400 nm, 50 µM JB253, single representative experiment
  ΔI: 216 pA
KATP channels; λ 400 nm, 50 µM JB253, ± SD
  % block: 44.0±29.6%
KATP channels; [2]
  τoff: 2758 ± 745 ms
  τon: 1176 ± 385 ms
KATP channels; λ 420 nm, 50 µM JB253, single representative experiment
  ΔI: 492 pA
KATP channels; λ 420 nm, 50 µM JB253, ± SD
  % block: 69.4±51.1%
KATP channels; [3]
  τoff: 2209 ± 482 ms
  τon: 1309 ± 438 ms
KATP channels; λ 440 nm, 50 µM JB253, single representative experiment
  ΔI: 440 pA
KATP channels; λ 440 nm, 50 µM JB253, ± SD
  % block: 70.0±44.3%
KATP channels; [4]
  τoff: 2295 ± 397 ms
  τon: 1246 ± 421 ms
KATP channels; λ 460 nm, 50 µM JB253, single representative experiment
  ΔI: 481 pA
KATP channels; λ 460 nm, 50 µM JB253, ± SD
  % block: 72.8±48.1%
KATP channels; [5]
  τoff: 1940 ± 322 ms
  τon: 1181 ± 447 ms
KATP channels; λ 480 nm, 50 µM JB253, single representative experiment
  ΔI: 487 pA
KATP channels; λ 480 nm, 50 µM JB253, ± SD
  % block: 72.4±49.0%
KATP channels; [6]
  τoff: 2183 ± 422 ms
  τon: 1163 ± 434 ms
KATP channels; λ 500 nm, 50 µM JB253, single representative experiment
  ΔI: 482 pA
KATP channels; λ 500 nm, 50 µM JB253, ± SD
  % block: 70.2±49.5%
KATP channels; [7]
  τoff: 2002 ± 354 ms
  τon: 1244 ± 462 ms
Isolated murine islets; 50 µM JB253, 5 mM glucose, 405 nm or 485 nm, 30 min
  insulin secreted following illumination: 4-8 fold
Isolated murine islets; 50 µM JB253, dark, 30 min
  insulin release in the dark versus control (5 mM glucose): similar
Isolated murine islets; 485 nm light, JB253 50 µM, glimepiride 50 µM
  stimulation of insulin secretion compared with glimepiride: equipotent to glimepiride
Human islets
  X-Rhod1-loaded cells responding with Ca^2+ rises: ~62%

Reference: patent EP3009422A1, “Photo-switchable sulfonylureas and their uses” (Ludwig-Maximilians-Universität München, priority 2014, dated 2016)
